Source: ChEMBL document CHEMBL4765420, “Design, synthesis and biological evaluation of novel HDAC inhibitors with improved pharmacokinetic profile in breast cancer” (Eur J Med Chem, 2020)
pIC50: −log10 of the molar value. The source made the active and inactive calls. The rule behind the calls is not given here.

Key:
[1] = target: Histone deacetylase 1 (Homo sapiens, UniProt Q13547); experiment: Inhibition of recombinant human His-tagged HDAC1 expressed in insect cells using Ac-Leu-Gly-Lys(Ac)-AMC as substrate measured after 30 mins by fluorescence assay
Chain of Histone deacetylase 1 (Q13547 whole entry, the tested form may be a part): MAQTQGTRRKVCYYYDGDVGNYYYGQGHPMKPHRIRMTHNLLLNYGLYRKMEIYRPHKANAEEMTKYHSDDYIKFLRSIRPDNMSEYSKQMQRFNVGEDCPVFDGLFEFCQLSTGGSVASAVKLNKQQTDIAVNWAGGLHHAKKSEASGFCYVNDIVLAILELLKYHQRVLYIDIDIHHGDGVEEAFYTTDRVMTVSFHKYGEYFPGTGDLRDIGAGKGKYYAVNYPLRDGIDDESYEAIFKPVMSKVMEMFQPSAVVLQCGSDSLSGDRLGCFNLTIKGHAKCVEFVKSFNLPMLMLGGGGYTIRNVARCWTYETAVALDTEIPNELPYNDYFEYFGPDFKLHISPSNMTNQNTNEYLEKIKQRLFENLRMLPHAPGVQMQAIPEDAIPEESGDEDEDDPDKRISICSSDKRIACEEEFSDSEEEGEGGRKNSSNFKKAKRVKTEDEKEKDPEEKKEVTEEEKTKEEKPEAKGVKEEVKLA

[2] = target: Histone deacetylase 3/NCoR1 (Homo sapiens, UniProt O15379); experiment: Inhibition of recombinant human GST-fused HDAC3/NCOR1 (397 to 503 residues) expressed in baculovirus infected insect cells using Ac-Leu-Gly-Lys(Ac)-AMC as substrate measured after 30 mins by fluorescence assay
Chain of Histone deacetylase 3/NCoR1 (O15379 whole entry, the tested form may be a part): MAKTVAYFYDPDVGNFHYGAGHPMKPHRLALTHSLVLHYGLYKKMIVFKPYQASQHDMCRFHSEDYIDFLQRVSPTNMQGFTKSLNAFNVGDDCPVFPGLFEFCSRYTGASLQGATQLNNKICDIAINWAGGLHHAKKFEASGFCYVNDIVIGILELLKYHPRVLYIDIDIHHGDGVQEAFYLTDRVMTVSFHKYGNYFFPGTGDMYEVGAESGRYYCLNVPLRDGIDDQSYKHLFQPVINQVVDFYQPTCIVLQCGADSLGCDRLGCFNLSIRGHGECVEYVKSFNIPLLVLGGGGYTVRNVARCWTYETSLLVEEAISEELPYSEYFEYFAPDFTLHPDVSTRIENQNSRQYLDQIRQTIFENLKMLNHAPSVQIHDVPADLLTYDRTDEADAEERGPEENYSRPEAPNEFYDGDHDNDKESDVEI
Chain of Histone deacetylase 3/NCoR1 (O75376 whole entry, further chain, the tested form may be a part): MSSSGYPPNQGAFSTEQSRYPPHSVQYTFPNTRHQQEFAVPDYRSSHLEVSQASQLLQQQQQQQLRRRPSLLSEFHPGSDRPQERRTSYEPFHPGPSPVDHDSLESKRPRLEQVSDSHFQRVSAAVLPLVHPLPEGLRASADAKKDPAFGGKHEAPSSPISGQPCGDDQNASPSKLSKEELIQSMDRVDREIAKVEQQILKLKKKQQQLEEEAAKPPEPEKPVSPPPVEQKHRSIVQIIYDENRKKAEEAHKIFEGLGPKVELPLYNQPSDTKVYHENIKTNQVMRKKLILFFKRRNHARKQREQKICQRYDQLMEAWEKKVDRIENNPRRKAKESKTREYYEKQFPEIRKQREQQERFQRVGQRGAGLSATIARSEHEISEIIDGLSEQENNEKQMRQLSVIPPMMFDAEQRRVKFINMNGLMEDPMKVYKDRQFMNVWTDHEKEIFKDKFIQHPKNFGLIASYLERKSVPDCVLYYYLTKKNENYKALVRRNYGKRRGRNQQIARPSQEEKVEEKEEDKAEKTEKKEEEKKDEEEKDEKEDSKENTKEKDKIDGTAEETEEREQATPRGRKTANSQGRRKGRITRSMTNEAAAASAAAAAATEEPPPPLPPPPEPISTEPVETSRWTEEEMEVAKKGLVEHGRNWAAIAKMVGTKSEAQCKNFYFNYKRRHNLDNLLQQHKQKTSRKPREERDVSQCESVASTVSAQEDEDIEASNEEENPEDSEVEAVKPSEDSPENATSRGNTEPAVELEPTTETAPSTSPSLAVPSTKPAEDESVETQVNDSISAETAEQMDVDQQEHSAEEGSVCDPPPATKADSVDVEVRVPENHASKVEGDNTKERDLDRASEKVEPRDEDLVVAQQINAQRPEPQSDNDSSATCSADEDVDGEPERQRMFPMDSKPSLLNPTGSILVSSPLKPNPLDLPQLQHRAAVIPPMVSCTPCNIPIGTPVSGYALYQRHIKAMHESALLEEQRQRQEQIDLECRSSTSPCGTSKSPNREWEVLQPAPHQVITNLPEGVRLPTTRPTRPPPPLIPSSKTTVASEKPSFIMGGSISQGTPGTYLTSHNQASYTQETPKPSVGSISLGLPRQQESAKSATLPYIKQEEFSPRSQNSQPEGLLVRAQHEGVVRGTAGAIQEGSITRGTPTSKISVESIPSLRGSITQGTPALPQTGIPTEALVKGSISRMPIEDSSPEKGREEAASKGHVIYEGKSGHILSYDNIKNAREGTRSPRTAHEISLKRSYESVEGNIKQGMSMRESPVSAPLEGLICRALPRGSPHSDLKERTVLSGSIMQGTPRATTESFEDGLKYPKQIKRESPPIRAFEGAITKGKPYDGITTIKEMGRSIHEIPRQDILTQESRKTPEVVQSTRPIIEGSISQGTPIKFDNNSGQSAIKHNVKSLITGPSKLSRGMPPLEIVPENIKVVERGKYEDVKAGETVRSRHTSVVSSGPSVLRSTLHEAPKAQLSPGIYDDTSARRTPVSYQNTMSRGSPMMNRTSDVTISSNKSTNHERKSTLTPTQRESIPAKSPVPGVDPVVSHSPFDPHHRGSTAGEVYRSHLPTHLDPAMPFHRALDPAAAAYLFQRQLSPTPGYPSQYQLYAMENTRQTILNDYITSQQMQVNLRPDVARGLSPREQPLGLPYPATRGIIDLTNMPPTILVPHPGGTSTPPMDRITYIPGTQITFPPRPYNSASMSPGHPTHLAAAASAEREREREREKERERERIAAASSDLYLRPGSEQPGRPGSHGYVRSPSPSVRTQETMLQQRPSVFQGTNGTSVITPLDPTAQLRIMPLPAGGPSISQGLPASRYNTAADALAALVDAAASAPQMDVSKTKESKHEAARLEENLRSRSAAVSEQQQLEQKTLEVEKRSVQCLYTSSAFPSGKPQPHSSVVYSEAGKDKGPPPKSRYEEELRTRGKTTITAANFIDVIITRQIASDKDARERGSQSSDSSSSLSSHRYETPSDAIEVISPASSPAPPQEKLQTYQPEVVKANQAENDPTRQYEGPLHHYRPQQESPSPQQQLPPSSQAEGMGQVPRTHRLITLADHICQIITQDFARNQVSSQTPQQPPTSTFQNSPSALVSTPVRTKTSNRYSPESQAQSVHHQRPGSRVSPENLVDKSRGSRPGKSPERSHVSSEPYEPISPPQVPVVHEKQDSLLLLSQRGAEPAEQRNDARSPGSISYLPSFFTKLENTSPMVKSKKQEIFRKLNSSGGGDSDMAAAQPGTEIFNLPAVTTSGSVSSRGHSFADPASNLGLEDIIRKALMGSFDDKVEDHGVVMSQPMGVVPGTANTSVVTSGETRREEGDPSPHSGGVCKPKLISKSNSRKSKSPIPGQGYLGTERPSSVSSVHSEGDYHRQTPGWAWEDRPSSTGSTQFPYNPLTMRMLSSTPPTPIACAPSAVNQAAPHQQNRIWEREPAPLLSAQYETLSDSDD

[3] = target: Histone deacetylase 5 (Homo sapiens, UniProt Q9UQL6); experiment: Inhibition of recombinant human full-length N-terminal GST-tagged HDAC5 expressed in baculovirus infected Sf9 insect cells using AcLeu-Gly-Lys(Tfa)-AMC as substrate measured after 30 mins by fluorescence assay
Chain of Histone deacetylase 5 (Q9UQL6 whole entry): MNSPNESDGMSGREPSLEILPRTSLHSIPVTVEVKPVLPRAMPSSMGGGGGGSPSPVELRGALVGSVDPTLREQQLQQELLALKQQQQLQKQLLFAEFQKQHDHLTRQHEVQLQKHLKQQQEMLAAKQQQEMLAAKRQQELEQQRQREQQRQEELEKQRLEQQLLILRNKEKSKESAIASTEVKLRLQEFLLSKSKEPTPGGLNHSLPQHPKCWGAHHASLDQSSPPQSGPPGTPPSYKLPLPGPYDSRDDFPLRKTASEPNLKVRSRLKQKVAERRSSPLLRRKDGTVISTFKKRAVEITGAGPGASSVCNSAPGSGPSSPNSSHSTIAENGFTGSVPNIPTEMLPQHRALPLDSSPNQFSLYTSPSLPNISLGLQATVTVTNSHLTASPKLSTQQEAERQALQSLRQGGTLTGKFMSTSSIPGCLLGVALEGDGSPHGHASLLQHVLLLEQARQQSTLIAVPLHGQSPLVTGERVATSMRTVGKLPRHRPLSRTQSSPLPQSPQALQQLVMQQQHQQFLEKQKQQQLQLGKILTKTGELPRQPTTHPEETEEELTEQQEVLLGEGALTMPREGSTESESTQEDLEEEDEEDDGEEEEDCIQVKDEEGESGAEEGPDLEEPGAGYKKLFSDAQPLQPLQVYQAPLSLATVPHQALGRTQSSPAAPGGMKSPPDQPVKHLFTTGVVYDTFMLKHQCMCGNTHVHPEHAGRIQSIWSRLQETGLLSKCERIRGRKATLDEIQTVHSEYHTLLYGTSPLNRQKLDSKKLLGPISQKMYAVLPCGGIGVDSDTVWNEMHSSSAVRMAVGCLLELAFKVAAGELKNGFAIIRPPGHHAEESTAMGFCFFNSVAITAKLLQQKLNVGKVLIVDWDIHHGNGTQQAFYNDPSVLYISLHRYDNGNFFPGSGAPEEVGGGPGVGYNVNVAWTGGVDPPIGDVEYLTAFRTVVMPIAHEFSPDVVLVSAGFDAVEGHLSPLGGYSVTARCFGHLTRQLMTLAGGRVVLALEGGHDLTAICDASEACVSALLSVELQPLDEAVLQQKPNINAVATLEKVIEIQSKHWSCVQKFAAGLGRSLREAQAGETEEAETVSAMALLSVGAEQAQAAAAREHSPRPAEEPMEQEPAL

[4] = target: T1, Histone deacetylase 11 (Homo sapiens, UniProt Q96DB2); experiment: Inhibition of recombinant human N-terminal His-tagged HDAC11 expressed in baculovirus infected Sf9 insect cells using Ac-Arg-His-Lys(Ac)-Lys(Ac)-AMC as substrate measured after 30 mins by fluorescence assay
T1 sequence (Q96DB2 whole entry): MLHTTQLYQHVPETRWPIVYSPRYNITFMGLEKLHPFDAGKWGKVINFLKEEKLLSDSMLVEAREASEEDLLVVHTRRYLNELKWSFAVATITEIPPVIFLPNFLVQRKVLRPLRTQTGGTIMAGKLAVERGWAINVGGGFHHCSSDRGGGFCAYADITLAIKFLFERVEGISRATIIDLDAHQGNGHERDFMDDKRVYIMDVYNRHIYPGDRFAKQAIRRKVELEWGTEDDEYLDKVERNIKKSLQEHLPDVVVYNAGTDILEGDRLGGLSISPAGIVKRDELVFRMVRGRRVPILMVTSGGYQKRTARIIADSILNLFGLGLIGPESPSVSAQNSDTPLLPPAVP

[5] = system: MDA-MB-231; experiment: Antiproliferative activity against human MDA-MB-231 cells measured after 96 hrs by MTT assay; assay type: functional, cell-based; details: MDA-MB-231, 96 h
[6] = target: T2, Protein deacetylase HDAC6 (Homo sapiens) (UniProt Q9UBN7); experiment: Inhibition of HDAC6 in human MDA-MB-231 cells assessed as increase in alpha-tubulin acetylation at 2.5 to 10 uM measured after 24 hrs by Western blot analysis; assay type: cell-based; details: dose 2.5-10 µM
T2 sequence (whole entry): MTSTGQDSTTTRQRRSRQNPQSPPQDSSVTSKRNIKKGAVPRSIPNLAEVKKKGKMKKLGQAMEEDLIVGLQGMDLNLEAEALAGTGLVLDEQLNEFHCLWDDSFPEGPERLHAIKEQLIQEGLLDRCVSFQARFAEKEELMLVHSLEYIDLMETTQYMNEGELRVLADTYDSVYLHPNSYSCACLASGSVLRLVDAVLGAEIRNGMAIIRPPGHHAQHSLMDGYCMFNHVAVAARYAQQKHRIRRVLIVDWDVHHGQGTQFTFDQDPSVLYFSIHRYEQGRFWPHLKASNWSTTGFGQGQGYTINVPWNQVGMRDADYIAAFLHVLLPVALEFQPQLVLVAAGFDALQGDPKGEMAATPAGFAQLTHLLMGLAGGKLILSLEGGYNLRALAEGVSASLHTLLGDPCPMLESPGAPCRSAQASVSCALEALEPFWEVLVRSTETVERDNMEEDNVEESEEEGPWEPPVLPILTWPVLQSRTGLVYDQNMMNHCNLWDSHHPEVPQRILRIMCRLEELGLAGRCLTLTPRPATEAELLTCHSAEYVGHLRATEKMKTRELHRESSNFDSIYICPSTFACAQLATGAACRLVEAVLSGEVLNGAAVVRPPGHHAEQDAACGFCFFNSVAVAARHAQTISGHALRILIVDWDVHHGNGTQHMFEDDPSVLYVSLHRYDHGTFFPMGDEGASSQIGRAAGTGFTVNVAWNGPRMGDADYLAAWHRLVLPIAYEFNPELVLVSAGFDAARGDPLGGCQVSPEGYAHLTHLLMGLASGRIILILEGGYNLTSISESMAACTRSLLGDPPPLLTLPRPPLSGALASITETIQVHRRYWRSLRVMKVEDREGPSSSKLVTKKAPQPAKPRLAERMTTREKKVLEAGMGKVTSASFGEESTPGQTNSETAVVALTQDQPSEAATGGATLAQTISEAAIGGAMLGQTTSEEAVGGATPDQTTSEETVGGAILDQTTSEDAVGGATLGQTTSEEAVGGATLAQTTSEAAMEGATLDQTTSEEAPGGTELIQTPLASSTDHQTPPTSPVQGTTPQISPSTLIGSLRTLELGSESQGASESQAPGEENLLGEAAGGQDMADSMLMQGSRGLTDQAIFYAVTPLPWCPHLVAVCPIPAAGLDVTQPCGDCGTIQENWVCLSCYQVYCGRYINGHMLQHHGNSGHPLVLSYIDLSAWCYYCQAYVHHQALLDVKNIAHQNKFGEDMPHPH

[7] = system: MDA-MB-231; experiment: Induction of apoptosis in human MDA-MB-231 cells assessed as increase in DNA fragmentation at 2.5 to 10 uM measured after 24 hrs by Hoechst 33258 staining based immunofluorescence assay; assay type: functional, cell-based; details: dose 2.5-10 µM
[8] = system: MDA-MB-231; experiment: Induction of apoptosis in human MDA-MB-231 cells assessed as viable cells at 2.5 uM measured after 24 hrs by Annexin-V/propidium iodide staining based flow cytometry (reference value: 95.68 to 98.38%); assay type: functional; details: read-out: Activity
[9] = system: MDA-MB-231; experiment: Induction of apoptosis in human MDA-MB-231 cells assessed as late apoptotic cells at 2.5 uM measured after 24 hrs by Annexin-V/propidium iodide staining based flow cytometry (reference value: 0.71 to 2.94%); assay type: functional
[10] = system: MDA-MB-231; experiment: Induction of apoptosis in human MDA-MB-231 cells assessed as necrotic cells at 5 uM measured after 24 hrs by Annexin-V/propidium iodide staining based flow cytometry (reference value: 0.22 to 0.46%); assay type: functional
[11] = system: MDA-MB-231; experiment: Induction of apoptosis in human MDA-MB-231 cells assessed as viable cells at 10 uM measured after 24 hrs by Annexin-V/propidium iodide staining based flow cytometry (reference value: 95.68 to 98.38%); assay type: functional; details: read-out: Activity
[12] = system: MDA-MB-231; experiment: Induction of apoptosis in human MDA-MB-231 cells assessed as increase in cleaved caspase-8 expression at 2.5 to 10 uM measured after 24 hrs by Western blot analysis; assay type: functional, cell-based; details: dose 2.5-10 µM
[13] = system: MDA-MB-231; experiment: Inhibition of cell migration in human MDA-MB-231 cells measured after 24 hrs by phase-contrast microscopy based wound healing assay; assay type: functional
[14] = system: MDA-MB-231; experiment: Induction of autophagy in human MDA-MB-231 cells assessed as increase in LC3II expression at 2.5 to 10 uM measured after 24 hrs by Western blot analysis; assay type: functional, cell-based; details: dose 2.5-10 µM
[15] = system: MDA-MB-231; experiment: Induction of autophagy in human MDA-MB-231 cells assessed as increase in Beclin1 expression at 2.5 to 10 uM measured after 24 hrs by Western blot analysis; assay type: functional, cell-based; details: dose 2.5-10 µM
[16] = system: MDA-MB-231; experiment: Induction of autophagy in human MDA-MB-231 cells assessed as decrease in SQSTM1/p62 expression at 2.5 to 10 uM measured after 24 hrs by Western blot analysis; assay type: functional, cell-based; details: dose 2.5-10 µM

pIC50 [1]: 7.00 | pIC50 [2]: 6.97 | pIC50 [3]: 6.16 | pIC50 [4]: < 6.00 | pIC50 [5]: 5.87 | inhibition [6]: Active
Compound: COc1cc(OC)c2c(N3CCS(=O)(=O)CC3)nc(-c3cc(C)c(OCCCCCC(=O)NO)c(C)c3)nc2c1
Activity [7]: Active | viability at 2.5 µM [8]: 84.2% | Activity [9]: 3.01% | Activity [10]: 0.41% | viability at 10 µM [11]: 25.6% | Activity [12]: Active | inhibition [13]: Dose-dependent effect | Activity [14]: Active | Activity [15]: Active | Activity [16]: Active
